Read-outs that look alike come from different tables or passages of the source.
Assays:
[1] = biological target: T1, cytoplasmic domain of the human CSF-1R (Homo sapiens, UniProt P07333); assay: In vitro kinase assay for colony stimulating factor-1 receptor (AlphaScreen); format: biochemical; conditions: tested at about 1 μM, read-out: CSF-1R percent inhibition
T1 construct: Recombinant protein corresponding to the cytoplasmic domain of the human CSF-1R; purchased Invitrogen Corporation, Carlsbad, Calif; PV3249
T1 sequence (P07333 539-972 limits assumed): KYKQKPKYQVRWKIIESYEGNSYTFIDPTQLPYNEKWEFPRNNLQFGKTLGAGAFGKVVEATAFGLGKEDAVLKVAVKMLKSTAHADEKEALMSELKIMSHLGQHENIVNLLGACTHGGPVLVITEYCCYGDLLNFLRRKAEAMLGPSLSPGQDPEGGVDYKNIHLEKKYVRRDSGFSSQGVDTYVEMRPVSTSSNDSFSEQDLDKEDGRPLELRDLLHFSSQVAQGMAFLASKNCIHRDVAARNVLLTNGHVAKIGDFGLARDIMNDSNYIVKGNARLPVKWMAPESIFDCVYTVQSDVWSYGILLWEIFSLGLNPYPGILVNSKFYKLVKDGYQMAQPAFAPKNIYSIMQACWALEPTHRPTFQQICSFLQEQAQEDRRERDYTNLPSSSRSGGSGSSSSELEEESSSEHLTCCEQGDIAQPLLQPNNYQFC
How it was run: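 Tyrosine phosphorylation of a peptide substrate by 4 nM recombinant cytoplasmic-domain enzyme is measured at 1 μM ATP in Mn2+/Mg2+-containing Hepes buffer, pH 7.5. Detection uses PT66 AlphaScreen beads after overnight incubation.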

[2] = biological target: T2, kinase domain of cKIT (Homo sapiens, UniProt P10721); assay: Inhibition of cKIT kinase signaling in an in vitro biochemical assay (alphascreen); conditions: tested at about 1 μM, read-out: cKit percent inhibition
T2 construct: The kinase domain of cKIT was assayed in 50 mM Hepes; purchased Upstate 14-559

[3] = biological target: T3, kinase domain of PDGFRβ (Homo sapiens, UniProt P09619); assay: Inhibition of PDGFRb kinase signaling in an in vitro biochemical assay (alphascreen); conditions: tested at about 1 μM, read-out: PDGFRβ percent inhibition
T3 construct: The kinase domain of PDGFRβ was assayed in 50 mM Hepes; purchased Invitrogen P3082

[4] = system: MNFS60 (murine AML cells); assay: Cell viability assay in MCSF dependent MNFS60 cells (Cell Titer Glo); format: cell-based; conditions: Mus musculus, tested at about 1 μM, read-out: M-NFS-60 CP percent inhibition
How it was run: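 MNFS60 cells grown with 10 ng/ml MCSF (final) were exposed for 72 hrs at 37° C., 5% CO2 to 3-fold serial compound dilutions. Viable cells were measured by Cell Titer Glo luminescence, in triplicate, and EC50s were derived by curve fitting.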

T2 sequence (P10721 589-937 limits assumed): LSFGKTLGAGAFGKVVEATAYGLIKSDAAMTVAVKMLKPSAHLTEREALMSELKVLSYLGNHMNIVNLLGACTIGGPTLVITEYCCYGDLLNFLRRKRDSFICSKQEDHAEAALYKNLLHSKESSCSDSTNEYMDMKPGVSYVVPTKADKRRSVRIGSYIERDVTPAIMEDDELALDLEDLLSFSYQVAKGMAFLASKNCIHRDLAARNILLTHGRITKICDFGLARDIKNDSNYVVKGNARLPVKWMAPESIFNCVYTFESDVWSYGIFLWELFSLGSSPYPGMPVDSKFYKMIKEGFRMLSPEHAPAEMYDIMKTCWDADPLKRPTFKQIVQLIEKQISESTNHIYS
T3 sequence (P09619 600-962 limits assumed): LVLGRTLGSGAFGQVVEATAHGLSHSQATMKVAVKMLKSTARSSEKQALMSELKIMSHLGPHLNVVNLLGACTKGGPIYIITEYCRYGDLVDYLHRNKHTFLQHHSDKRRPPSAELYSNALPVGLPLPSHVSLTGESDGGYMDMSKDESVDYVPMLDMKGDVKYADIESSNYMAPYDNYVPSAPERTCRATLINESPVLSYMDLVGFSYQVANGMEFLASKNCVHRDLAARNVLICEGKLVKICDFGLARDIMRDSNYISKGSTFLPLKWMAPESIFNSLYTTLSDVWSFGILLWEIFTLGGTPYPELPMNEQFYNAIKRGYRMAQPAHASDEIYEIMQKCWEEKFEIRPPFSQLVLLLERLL

| SMILES | inhibition at 1 µM [1] [%] | inhibition at 1 µM [2] [%] | inhibition at 1 µM [3] [%] | inhibition at 1 µM ([4]; MNFS60 cells) [%] | inhibition at 1 µM ([1]; compounds of Table 3) [%] | inhibition at 1 µM ([2]; compounds of Table 3) [%] | inhibition at 1 µM ([3]; compounds of Table 3) [%] | inhibition at 1 µM ([4]; compounds of Table 3) [%] | inhibition at 1 µM ([4]; MCSF dependent MNFS60 cells) [%] |
| --- | --- | --- | --- | --- | --- | --- | --- | --- | --- |
| CNC(=O)c1cc(Oc2ccc3nc(NCc4c(Cl)cccc4Cl)sc3c2)ccn1 [Compound 158, 4-[2-(2,6-Dichloro-benzylamino)-benzothiazol-6-yloxy]-pyridine-2-carboxylic acid methylamide] | 99 | 11 | 2 | 1 |  |  |  |  |  |
| Fc1cc2nccc(Oc3ccc4nc(NCC5CCCCC5)sc4c3)c2cc1F [Example 211] |  |  |  |  | 100 | 85 | 50 | 23 |  |
| CNC(=O)c1cc(Oc2ccc3nc(NCc4ccc(S(N)(=O)=O)cc4)sc3c2)ccn1 [Compound 161, 4-[2-(4-Sulfonamido-benzyl-amino)-benzothiazol-6-yloxy]-pyridine-2-carboxylic acid methylamide] | 100 | 0 | 94 | 38 |  |  |  |  |  |
| CNC(=O)c1cc(Oc2cc(C)c3nc(NCC4CCCCC4)sc3c2)ccn1 [Example 374, 4-(2-(cyclohexylmethylamino)-4-methylbenzo[d]thiazol-6-yloxy)-N-methylpicolinamide] | 99 | 98 | 41 |  |  |  |  |  | 3 |
| CN(C)CCNC(=O)c1cc(Oc2ccc3nc(NCC4CCCCC4)sc3c2)ccn1 [Compound 160, 4-(2-(cyclohexylmethyl-amino)benzothiazol-6-yloxy)-N-(2-(dimethylamino)-ethyl)pyridine-2-carboxamide] | 99 | 13 | 18 | 30 |  |  |  |  |  |
| CNC(=O)c1cc(Oc2ccc3nc(NCc4cc(Cl)ccc4OC)oc3c2)ccn1 [Compound 114, 4-[2-(5-Chloro-2-methoxy-benzylamino)-benzooxazol-6-yloxy]-pyridine-2-carboxylic acid methylamide] | 100 | 92 | 15 | 36 |  |  |  |  |  |
| CNC(=O)c1cc(Oc2ccc3nc(Nc4cccc(CCN5CCCCC5)c4)oc3c2)ccn1 [Compound 58, 4-{2-[3-(2-Piperidin-1-yl-ethyl)-phenylamino]-benzooxazol-6-yloxy}-pyridine-2-carboxylic acid methylamide] | 98 | 48 | 85 | 30 |  |  |  |  |  |
| CNC(=O)c1cc(Oc2ccc3nc(NC4CC=CCC4)oc3c2)ccn1 (stereo not shown) [Compound 70, 4-[2-(Cyclohex-3-enylamino)-benzooxazol-6-yloxy]-pyridine-2-carboxylic acid methylamide] | 99 | 0 | 0 | 0 |  |  |  |  |  |
| CNC(=O)c1cc(Oc2ccc3nc(NCC4CCOCC4)sc3c2)ccn1 [Compound 141, 4-{2-[(tetrahydro-pyran-4-ylmethyl)-amino]-benzothiazol-6-yloxy}-pyridine-2-carboxylic acid methylamide] | 100 | 1 | 0 | 22 |  |  |  |  |  |
| CNC(=O)c1cc(Oc2ccc3nc(NCc4cc(F)ccc4OC)oc3c2)ccn1 [Compound 115, 4-[2-(5-Fluoro-2-methoxy-benzylamino)-benzooxazol-6-yloxy]-pyridine-2-carboxylic acid methylamide] | 99 | 88 | 18 | 21 |  |  |  |  |  |
| O[C@@H]1CCCC[C@H]1Nc1nc2ccc(Oc3ccnc(-c4cncs4)c3)cc2s1 [Compound 157] |  |  |  |  | 100 | 43 | 17 | 42 |  |
| CC(C)C[C@@H](CO)Nc1nc2ccc(Oc3ccnc4ccccc34)cc2s1 [Example 238, (S)-4-methyl-2-(6-(quinolin-4-yloxy)benzo[d]thiazol-2-ylamino)pentan-1-ol] |  |  |  |  | 100 | 100 | 90 | 100 |  |
| CNC(=O)c1cc(Oc2ccc3nc(NCc4ccccc4)sc3c2)ccn1 [Compound 138] |  |  |  |  | 100 | 100 | 37 | 105 |  |
| c1ccc2c(Oc3ccc4nc(NCCC5CCOCC5)sc4c3)ccnc2c1 [Example 252, 6-(quinolin-4-yloxy)-N-(2-(tetrahydro-2H-pyran-4-yl)ethyl)benzo[d]thiazol-2-amine] |  |  |  |  | 100 | 100 | 6 | 81 |  |
| C[C@@H](Nc1nc2ccc(Oc3ccnc4ccccc34)cc2s1)C1CCCCC1 [Example 243, (R)-N-(1-cyclohexylethyl)-6-(quinolin-4-yloxy)benzo[d]thiazol-2-amine] |  |  |  |  | 100 | 100 | 69 | 76 |  |
| CNC(=O)c1cc(Oc2ccc3nc(NCC4COc5ccccc5O4)oc3c2)ccn1 (stereo not shown) [Compound 119, 4-{2-[(2,3-Dihydro-benzo-[1,4]dioxin-2-ylmethyl)-amino]-benzooxazol-6-yloxy}-pyridine-2-carboxylic acid methylamide] | 99 | 18 | 32 | 13 |  |  |  |  |  |
| CNC(=O)c1cc(Oc2ccc3nc(N[C@H](CO)Cc4ccccc4)oc3c2)ccn1 [Compound 8] |  |  |  |  | 95 | 99 | 31 | 0 |  |
| OC[C@H](Cc1ccccc1)Nc1nc2ccc(Oc3ccnc4ccccc34)cc2s1 [Example 242] |  |  |  |  | 100 | 97 | 35 | 51 |  |
| c1ccc2c(Oc3ccc4nc(NC5CCCCCC5)sc4c3)ccnc2c1 [Example 247, N-cycloheptyl-6-(quinolin-4-yloxy)benzo[d]thiazol-2-amine] |  |  |  |  | 100 | 100 | 80 | 100 |  |
| CNC(=O)c1cc(Oc2ccc3nc(N[C@@H]4CCCC[C@H]4NC(C)=O)sc3c2)ccn1 [Example 298, 4-(2-((1R,2R)-2-acetamidocyclohexylamino)benzo[d]thiazol-6-yloxy)-N-methylpicolinamide] |  |  |  |  | 98 | 13 | 0 | 41 |  |
| Cn1cc(-c2cc(Oc3ccc4nc(NCc5ccccc5OC(F)F)sc4c3)ccn2)cn1 [Example 356, N-(2-(difluoromethoxy)benzyl)-6-(2-(1-methyl-1H-pyrazol-4-yl)pyridin-4-yloxy)benzo[d]thiazol-2-amine] | 100 | 100 | 99 |  |  |  |  |  | 100 |
| Cc1nn(C)c(C)c1-c1cc(Oc2ccc3nc(N[C@@H]4CCCC[C@H]4O)sc3c2)ccn1 [Example 283, (1R,2R)-2-(6-(2-(1,3,5-trimethyl-1H-pyrazol-4-yl)pyridin-4-yloxy)benzo[d]thiazol-2-ylamino)cyclohexanol] |  |  |  |  | 99 | 38 | 20 | 0 |  |
| N#Cc1ccc2c(Oc3ccc4nc(NCC5CCCCC5)sc4c3)ccnc2c1 [Example 221, 4-(2-(cyclohexylmethylamino)benzo[d]thiazol-6-yloxy)quinoline-7-carbonitrile] |  |  |  |  | 100 | 97 | 88 | 52 |  |
| C[C@H](Nc1nc2ccc(Oc3ccnc(Cl)c3)cc2s1)C1CCCCC1 [Example 264, (S)-6-(2-chloropyridin-4-yloxy)-N-(1-cyclohexylethyl)benzo[d]thiazol-2-amine] |  |  |  |  | 97 | 25 | 4 | 3 |  |
| C[C@@H](Nc1nc2ccc(Oc3ccnc(-c4cnn(C)c4)c3)cc2s1)C1CCCCC1 [Example 354, (R)-N-(1-cyclohexylethyl)-6-(2-(1-methyl-1H-pyrazol-4-yl)pyridin-4-yloxy)benzo[d]thiazol-2-amine] | 100 | 100 | 98 |  |  |  |  |  | 100 |

From US8173689B2 (Novartis AG, priority 2006, dated 2012)
